According to patent US20110142866A1, “PEPTIDE ANALOGUES AND CONJUGATES THEREOF” (Eldrug S.A., priority 2007, published 2011):
“And” between values parts separate entries of the source, which are not always exact repeats. Equal values may be shown once. “Also recorded” adds a separate entry of the source.

How the values were obtained:
Format in all cases: in vivo, SJL/J mice
[1] = test system: IFN-γ secretion by T cells; test: IFN-γ ELISpot of spleen cells from immunized mice; set-up: key to IFN-γ: −: negative; +/−: very weak; +: weak; ++: moderate; +++: strong
Experimental: (§1) Female 6-8 week old SJL/J mice used in all experiments, were purchased from Walter and Eliza Hall Institute (VIC Australia) and housed at the Biological Research Laboratory at Burnet Institute at Austin, Heidelberg, Australia. SJL/J mice were immunized twice on days 0, 14 intradermally (base of tail) with 50 μg MBP83-99 peptide analogue-KLH-reduced mannan.
(§2) ELISpot analyses specific T cell responses to antigens by detecting the secretion of specific cytokines. Spleen cells from immunized SJL/J mice were isolated 14 days after immunization and assessed by ELISpot for IFN-γ, IL-4 or IL-10 secretion by T cells. IFN-γ ELISpot assay was performed on MultiScreen-IP Filter Plate (MAIP S4510) with hydrophobic PVDF filters (Millipore, UK) while IL-4 and IL-10 ELISpot was performed on MultiScreen-HA Filter Plate (MAHA S4510) with mixed cellulose esters filters (Millipore, UK). MAIP S4510 plates were pre-wet with 50 μl of 70% ethanol, washed 5 times with 200 μl sterile PBS and coated with 70 μl of 5 μg/ml anti-IFN-γ capture antibody, AN18 (Mabtech, Australia) in PBS and left to incubate at 4° C. O/N. While 70 μl of 5 μg/ml anti-IL-4 and anti-IL-10 capture antibody (Mabtech, Australia) was added directly to MAHA S4510 plates and incubated at 4° C. O/N without 70% ethanol treatment. Following 5 washes with PBS, plates were blocked by adding 200 μl of culture media (supplemented with 2.5% FCS) and incubated for 2 hours at 37° C. The blocking media was discarded and 10 μg/ml recall peptides (MBP83-99 peptide analogues not conjugated to KLH-reduced mannan) were added into each defined well. Con A (1.0 μg/ml; IL-4 and IFN-γ) or LPS (1.0 μg/ml; IL-10) were used as an internal positive controls and no peptide was used as negative control. Triplicate wells were set up for each condition. 5×10^5 spleen cells in 100 μl culture media were seeded into each well and incubated for 18 hours for IFN-γ, 24 hours for IL-4 and 48 hours for IL-10 at 37° C. Plates were washed 5 times PBS/0.05% Tween 20 and 5 times PBS and incubated for 2 hours at RT with anti-murine IFN-γ, IL-4 or IL-10 monoclonal antibody-biotin. Plates were washed and streptavidin-ALP was added at 1.0 μg/ml and incubated for 2.0 hours at RT. Spots of activity were detected using a colorimetric AP kit (Biorad, Hercules, Calif. USA) and counted using an AID ELISpot plate reader (Autoimmun Diagnostika GmbH, Germany). Data are presented as mean spot forming units (sfu) per 0.5×10^6 cells +/−standard error of the mean (SEM).
MBP87-99, [R^91, A^96]MBP87-99 or [A^91, A^96]MBP87-99 peptides were dissolved in PBS and emulsified in an equal volume of complete Freund's adjuvant (CFA) which contained 1.0 mg/ml of heat killed Mycobacterium tuberculosis H37RA (Sigma, Victoria, Australia). SJL/J mice were given one subcutaneous injection containing 50 μg peptide into the base of tail.
SJL/J mice were immunized twice on days 0 and 14 intradermally (base of tail) with 50 μg MBP87-99-KLH-reduced mannan, [R^91, A^96]MBP87-99-KLH-reduced mannan or [A^91, A^96]MBP87-99-KLH-reduced mannan conjugates.
ELISpot detects specific T cell responses to antigens by measuring the secretion of specific cytokines from individual cells. Spleen cells from immunized SJL/J mice were isolated 28 days after CFA immunization or 14 days after the last immunization with reduced mannan-peptides and assessed by ELISpot for IFN-γ and IL-4 secretion by T cells. IFN-γ ELISpot assay was performed on MultiScreen-IP Filter Plate (MAIP S4510) with hydrophobic PVDF filters (Millipore, UK), while IL-4 ELISpot assays were performed on MultiScreen-HA Filter Plate (MAHA S4510) with mixed cellulose esters filters (Millipore, UK). MAIP S4510 plates were pre-weted with 50 μl of 70% ethanol, washed 5 times with 200 μl of sterile phosphate-buffered saline (PBS) and coated with 70 μl of 5 μg/ml anti-IFN-γ capture antibody, AN18 (Mabtech, Australia) in PBS and incubated O/N at 4° C. […]

[2] = test system: IL-10 secretion by T cells; test: IL-10 ELISpot of spleen cells from immunized mice; set-up: key to IL-10: −: negative; +/−: very weak; +: weak; ++: moderate; +++: strong; conditions: for IL-10: Table 2, peptide analogues conjugated to reduced mannan-KLH; for IL-10 production by T cells (in words): peptide conjugated to reduced mannan, two injections
Experimental: as §1, §2

[3] = test system: respective peptides conjugated to BSA or KLH; test: ELISA total IgG antibody responses to the respective peptide; set-up: key to Antibody: −: negative; +/−: very weak; +: weak; ++: moderate; +++: strong
Experimental: Blood was collected and sera isolated from mice prior to and 4 weeks after immunization with CFA or 14 days after the last immunization with reduced mannan conjugates. MBP87-99 or [A^91, A^96]MBP87-99 peptides conjugated to BSA or KLH were coated onto polyvinyl chloride (PVC) microtiter plates at 10 μg/ml in 0.2 M NaHCO3 buffer, pH 9.6, 0/N at 4° C. Non-specific binding was blocked with 2% BSA for 1.0 h at RT. After washing (0.05 Tween 20/PBS), serial dilutions of sera were added and incubated for a further 2 h at RT. The plates were washed and bound antibody was detected using HRP-conjugated sheep anti-mouse antibody (1/1000 dilution in PBS) (Amersham, UK) and developed using 2,2′-azino-di(3-ethylbenzthiazoline)6-sulfonic acid (ABTS) (Sigma, UK). Absorbance at 405 nm was recorded using a Fluostar Optima microplate reader (BMG labtech, Offenburg, Germany).
ELISpot assays for IFN-γ and IL-4 secretion by T cells and ELISA assays for binding of sera to native MBP protein or peptide were carried out as previously described^3, 4, 20, 21. Mean values were compared using the Student's two-tailed t-test. P value threshold of p<0.01 indicates a statistically significant difference.

[4] = Table 2, peptide analogues conjugated to reduced mannan-KLH
[5] = Table 3, peptide analogues emulsified in complete Freund's adjuvant
[6] = peptide conjugated to reduced mannan
[7] = 50 μg peptide conjugated to reduced mannan, two intradermal injections, spleen cells 14 days post-immunization
[8] = 50 μg peptide emulsified in CFA, one injection, spleen cells 28 days

Molecule	IFN-γ [1, 4]	IFN-γ [1, 5]	IL-10 [2]	IL-10 production by T cells (in words) [2]	Antibody [3, 4]	Antibody [3, 5]	subclass of the antibodies induced [3, 6]	IFN-γ secreting T cells (in words) [1, 7]	IFN-γ secreting T cells (in words) [1, 8]	IgG antibody responses (in words) ([3]; peptide emulsified in CFA)	IgG antibody responses (in words) [3, 6]	total IgG antibody titer [3, 6]
E N P V V H F F Y N I V T P R T P (ENPVVHFFYNIVTPRTP) [[Y^91]MBP83-99]	−	−	++	moderate levels	+++	−	IgG1					
E N P V V H F F K N I V T P R T P (ENPVVHFFKNIVTPRTP) [MBP83-99, reference compound]	++	+			+++	−		weak and generated IFN-γ secreting T cells and high levels	induced IFN-γ responses	did not generate IgG antibodies		
E N P V V H F F E N I V T P R T P (ENPVVHFFENIVTPRTP) [[E^91]MBP83-99]	−	−			+++	++	IgG1					
CC[C@H](C)[C@@H]1NC(=O)[C@H](CC(N)=O)NC(=O)[C@H](CCCCN)NC(=O)[C@H](Cc2ccccc2)NC(=O)[C@H](Cc2ccccc2)NC(=O)[C@H](Cc2c[nH]cn2)NC(=O)[C@H](C(C)C)NC(=O)[C@H](C(C)C)NC(=O)[C@@H]2CCCN2C(=O)[C@H](CC(N)=O)NC(=O)[C@H](CCC(=O)O)NC(=O)[C@@H]2CCCN2C(=O)[C@H]([C@@H](C)O)NC(=O)[C@H](CCCNC(=N)N)NC(=O)[C@@H]2CCCN2C(=O)[C@H]([C@@H](C)O)NC(=O)[C@H](C(C)C)NC1=O [cyclo(83-99)MBP83-99, cyclo(83-99)E N P V V H F F K N I V T P R T P]		+						weak and generated IFN-γ secreting T cells	induced IFN-γ responses	antibodies were generated		
E N P V V H F F F N I V T P R T P (ENPVVHFFFNIVTPRTP) [[F^91]MBP83-99]	++	++	++	moderate levels; also recorded: induced	+/−	++		weak and induced			weak	1/800
E N P V V H F F A N I V T P R T P (ENPVVHFFANIVTPRTP) [[A^91]MBP83-99]	−	−			+	++	IgG1	negative	lower	able to induce IgG antibody responses		1/640
E N P V V H F F R N I V T A R T P (ENPVVHFFRNIVTARTP) [[R^91, A^96]MBP83-99]	−	++			+++	++	IgG1	no IFN-γ				
cyclo(83-99)E N P V V H F F A N I V T P R T P (ENPVVHFFANIVTPRTP; cyclised or stapled) [cyclo(83-99)[A^91]MBP83-99]	−	−			+/−	+		negative	lower	enhanced		1/800 and 1/1600
